Laboratory results from the NIST ThermoML archive (doi:10.1021/acs.jced.5b00760).

Settings: Liquid, Closed cell (Static) method

c1ccccc1 [benzene]
Settings	vapor or sublimation pressure [kPa]
303.15 K	15.63
313.15 K	24.45
323.15 K	36.6
333.15 K	53.12
343.15 K	74.82

c1ccsc1 [thiophene]
Settings	vapor or sublimation pressure [kPa]
303.15 K	13.29
308.15 K	16.61
313.15 K	20.59
318.15 K	25.31
323.15 K	30.87
328.15 K	37.4
333.15 K	44.98

Cc1ccccc1 [toluene]
Settings	vapor or sublimation pressure [kPa]
323.16 K	12.29
325.16 K	13.37
327.15 K	14.53
329.15 K	15.77
332.15 K	17.8
334.25 K	19.35
337.65 K	22.08
339.65 K	23.83
342.3 K	26.32
342.45 K	26.47

O [water]
Settings	vapor or sublimation pressure [kPa]
322.13 K	11.12
329.07 K	16.75
337.68 K	24.18
341.81 K	29.68
347.45 K	37.91
350.9 K	43.56
355.11 K	51.68
358.38 K	58.49
